Data on 1 molecule can be found in article PMC12008195 (Scientific Reports, 2025).

Structures are written as SMILES. pIC50: −log10 of the molar value.

Series [1] deals with HepG-2 cells. Briefly: Cell cycle analysis, propidium iodide flow cytometry. The note with it: 3b at 6 µM. The class given is cell-based, human. (Flow cytometry measures light scatter and fluorescence of single cells or particles in a stream.)
Another series concerns Bcl-2. The series can be described thus: RT-PCR gene expression of Bcl-2 in HepG-2 cells. The class given is cell-based, human. The note with it: versus untreated cells.
In series [2] the test system is HepG-2 cells. Briefly: Annexin-V/propidium iodide staining assay. The class given is cell-based, human.
The subject of series [3] is HCT-116 (human colon cancer). The note with it: read-out: IC50 HCT-116; MTT, 24-hour exposure; cited from earlier work.
Series [4] has as its system HepG2 (hepatocellular carcinoma). As to conditions: read-out: IC50 HepG-2; MTT, 24-hour exposure; cited from earlier work.
Series [5] concerns MCF-7 (mammary gland breast cancer). The note with it: read-out: IC50 MCF-7; MTT, 24-hour exposure; cited from earlier work.
For series [6], the system named is WI-38 (human lung fibroblasts). The note with it: read-out: IC50 WI-38 human fibroblasts; MTT, normal non-cancer cells; cited from earlier work.
The conditions of series [7]: cited from earlier work.

For orientation: pIC50 means the IC50 on a negative log10 scale, so that one unit is a factor of ten. Take `Cc1cc2c(cc1C)N[C@H](c1ccccc1)[C@@H](O)C(=O)N2` [Compound 3b, (3R,4R)−3-hydroxy-7,8-dimethyl-4-phenyl-1,3,4,5-tetrahydro-2 H-1,5-benzodiazepin-2-one]: the “Increase of DNA content at G2/M phase compared to non-treated cells” value in the series on HepG-2 cells [1] turned out to be 28%. Also, the “Gene expression fold change Bcl-2” value in the series on Bcl-2 turned out to be 0.339 fold. The “Fold increase in the proportion of necrotic cells versus control” value with HepG-2 cells [2] is recorded as 2.6 fold. Besides, the pIC50 was 5.04 in series [3], 5.21 in series [4], 5.10 in series [5] and 4.86 in series [6]. For the same molecule, in series [7] (MW ≤ 500 Da, LogP < 5, nHBD ≤ 5, nHBA ≤ 10, TPSA < 140 Å2), the “Lipinski's rule of five” value is “satisfied”. The Predicted oral bioavailability result in series [7] (in silico studies) is “good”.
